The numbers were not newly measured in patent US20250144250A1, “PH-SENSITIVE FLUOROPHORES” (The General Hospital Corporation, priority 2022, published 2025), which cites them from elsewhere.

The structures appear in SMILES notation.

The conditions of the data set: in DMSO; cited from earlier work.

Consider `CC1(C)C(/C=C/C=C/C=C/C=C2\N(CCCCS(=O)(=O)O)c3ccc4ccccc4c3C2(C)C)=[N+](CCCCS(=O)(=O)[O-])c2ccc3ccccc3c21` [ICG, indocyanine green], for which the “fluorescence QY of calibration standard” value is on record as 13%.
